Drawing on US20240158406A1, “PIPERAZINE DERIVATIVE AND USE THEREOF IN MEDICINE” (CHENGDU BAIYU PHARMACEUTICAL CO., LTD., priority 2021, published 2024), this text covers IC50 and half-life for 15 molecules.

For series [1], the system named is NCI-H1373 cells. As to the kind of experiment: NCI-H1373 cell proliferation inhibition assay. As to conditions: Homo sapiens, NCI-H1373, 144 h; 6 days of incubation, Cell Titer Blue. The class given is cell-based. As for the experimental part: Human lung adenocarcinoma cells NC-H1373 (ATCC, CRL-5866M) were cultured in a cell incubator at 37° C. and 5% CO2 using RPMI-1640 medium containing 10% FBS and 1% […]. The cells in the logarithmic growth phase were counted by digestion and inoculated in a 96-well plate at 1500 NCI-H1373 per well, and the plate was placed in an incubator overnight. The next day, test compounds were formulated in 10 mM stock solution by using DMSO and 3-fold diluted in gradient from a maximum concentration of 10 μM by using RPMI-1640 medium, and 10 gradient concentrations were set with 2 parallel wells per concentration gradient. After 6 days of incubation, 100 μL of Cell Titer Blue working solution was added to each well and the chemiluminescence value was read in a microplate reader. IC50 was calculated using GraphPad Prism7.0 software.

Series [2] has as its target PARP7 (Homo sapiens (Human), UniProt Q7Z3E1). As to the kind of experiment: Enzymatic biochemical assay of PARP (chemiluminescence detection kit), PARP7. The following applies: read-out: Inhibitory activity against PAPR7 (IC50). As for the experimental part: This assay adopted PARP1, TNKS1, TNKS2, PARP7 and PARP14 chemiluminescence detection kits (BPS, Cat No. 80551/80552/80573/80578/79729/80568) for enzymatic biochemical assay of PARP. The specific scheme was as follows: the 1× histone mixture was added to a 96-well plate at 50 μL per well, and the plate was incubated overnight at 4° C. The next day, after the plate was washed with PBST, 200 μL of blocking buffer per well was added, and the plate was incubated for 90 min. After the plate was washed with PBST again, 5 μL of inhibitor, 20 μL of 1×PARP buffer and 25 μL of […] were added to each well, and the plate was incubated at room temperature for 30 min. After the plate was washed with PBST, 100 μL of Elisa ECL substrate A and B mixture was added to each well, chemiluminescence value was immediately read using a plate reader, and IC50 values were calculated.

A short description of series [3]: Metabolic stability in liver microsome. The format is in vitro ADME. As to conditions: liver microsomes; 0.5 mg/mL CD1 mouse liver microsome, 0.5 μM test compound, NADPH and UDPGA, 37° C. As for the experimental part:
0.5 mg/mL CD1 mouse liver microsome solution, 0.5 μM test compound, 1.0 mM reduced nicotinamide adenine dinucleotide phosphate (NADPH), and 1.0 mM uridine diphosphate-A-glucuronic acid (UDPGA) were added to the incubation plate and mixed, and the plate was incubated at 37° C. for 0, 30, 60, 120 min separately. The positive control group was set as 0.5 μM CYP3A4 probe substrate-testosterone and 0.5 μM UGT probe substrate-7-hydroxycoumarin incubated with microsomes for 0 and 120 min in the presence of NADPH and UDPGA; the negative control group (NC) was set as the test substance incubated with microsomes for 0 and 120 min without any coenzyme. After the reaction was terminated by adding pre-cooled methanol at each termination time, the reaction mixture was centrifuged at 4000 rpm for 10 min, the supernatant was taken and the remaining amount of the parent drug in the sample was measured by LC-MS/MS, the results of which are shown in Table 4.
Background: Microsomes from liver hold many membrane-bound enzymes, among them those of drug oxidation.

Broadly, the IC50 is the concentration that gives 50% inhibition. In general, half-life refers to the time in which the quantity being followed falls by half. Lower therefore signals rapid decline.

Chain of PARP7 (Q7Z3E1 whole entry): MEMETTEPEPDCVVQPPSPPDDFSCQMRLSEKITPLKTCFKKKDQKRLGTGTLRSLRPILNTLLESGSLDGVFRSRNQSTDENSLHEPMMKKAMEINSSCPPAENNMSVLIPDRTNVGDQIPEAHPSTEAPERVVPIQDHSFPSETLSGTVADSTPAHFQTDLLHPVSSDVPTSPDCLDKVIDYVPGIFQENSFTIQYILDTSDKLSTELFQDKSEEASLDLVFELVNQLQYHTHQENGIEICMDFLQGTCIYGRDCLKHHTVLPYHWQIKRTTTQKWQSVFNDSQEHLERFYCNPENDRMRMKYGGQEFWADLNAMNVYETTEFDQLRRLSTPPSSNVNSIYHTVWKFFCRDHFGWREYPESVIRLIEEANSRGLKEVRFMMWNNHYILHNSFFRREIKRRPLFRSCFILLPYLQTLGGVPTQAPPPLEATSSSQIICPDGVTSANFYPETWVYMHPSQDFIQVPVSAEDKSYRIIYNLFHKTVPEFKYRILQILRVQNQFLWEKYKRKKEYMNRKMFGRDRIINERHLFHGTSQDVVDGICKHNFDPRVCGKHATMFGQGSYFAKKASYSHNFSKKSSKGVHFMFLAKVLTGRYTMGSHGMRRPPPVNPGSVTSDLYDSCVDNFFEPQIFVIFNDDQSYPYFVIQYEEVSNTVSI

The molecule `[2H]C([2H])(OC[C@H](C)Nc1cn[nH]c(=O)c1C(F)(F)F)c1cc2n(n1)CCN(c1ncc(C(F)(F)F)cn1)C2([2H])[2H]` [Compound 2, (S)-4-(trifluoromethyl)-5-((1-((5-(5-(trifluoromethyl)pyrimidin-2-yl)-4,5,6,7-tetrahydropyrazolo[1,5-a]pyrazin-2-yl-4,4-d2)methoxy-d2)propan-2-yl)amino)pyridazin-3(2H)-one] gave an IC50 in series [1] of under 50 nM. For the molecule `C[C@H](OC[C@H](C)Nc1cn[nH]c(=O)c1C(F)(F)F)c1cc2n(n1)CCN(c1ncc(C(F)(F)F)cn1)C2` [Compound 3-I, 4-(Trifluoromethyl)-5-(((S)-1-((S)-1-(5-(5-(trifluoromethyl)pyrimidin-2-yl)-4,5,6,7-tetrahydropyrazolo[1,5-a]pyrazin-2-yl)ethoxy)propan-2-yl)amino)pyridazin-3(2H)-one], the IC50 in series [1] was under 50 nM; in series [2] it was under 10 nM. On to `C[C@@H](CO[C@H](C)c1cc2n(n1)CCN(c1ncc(C(F)(F)F)cn1)C2)Nc1cn[nH]c(=O)c1C(F)(F)F` [Compound 3-II, 4-(Trifluoromethyl)-5-(((S)-1-((R)-1-(5-(5-(trifluoromethyl)pyrimidin-2-yl)-4,5,6,7-tetrahydropyrazolo[1,5-a]pyrazin-2-yl)ethoxy)propan-2-yl)amino)pyridazin-3(2H)-one], for which the IC50 in series [2] fell in the range of 50 to 100 nM.

For `C[C@@H](COCc1cc2n(n1)CCN(c1cnc(C(F)(F)F)cn1)C2)Nc1cn[nH]c(=O)c1C(F)(F)F` [Compound 5, (S)-4-(trifluoromethyl)-5-((1-((5-(5-(trifluoromethyl)pyrazin-2-yl)-4,5,6,7-tetrahydropyrazolo[1,5-a]pyrazin-2-yl)methoxy)propan-2-yl)amino)pyridazin-3(2H)-one], the IC50 was under 50 nM in series [1] and under 10 nM in series [2].

Regarding `C[C@@H](COCc1nc2n(n1)CCN(c1ncc(C(F)(F)F)cn1)C2)Nc1cn[nH]c(=O)c1C(F)(F)F` [Compound 9, (S)-4-(trifluoromethyl)-5-((1-((7-(5-(trifluoromethyl)pyrimidin-2-yl)-5,6,7,8-tetrahydro-[1,2,4]triazolo[1,5-a]pyrazin-2-yl)methoxy)propan-2-yl)amino)pyridazin-3(2H)-one], the IC50 was under 50 nM in series [1] and 10 to 50 nM in series [2]. In addition, the half-life at 0.5 μM in series [3] was over 0.5 h. Turning to `C[C@@H](COCc1cc2n(n1)CCN(c1ccc(C(F)(F)F)cn1)C2=O)Nc1cn[nH]c(=O)c1C(F)(F)F` [Compound 11, (S)-2-((2-((6-oxo-5-(trifluoromethyl)-1,6-dihydropyridazin-4-yl)amino)propoxy)methyl)-5-(5-(trifluoromethyl)pyridin-2-yl)-6,7-dihydropyrazolo[1,5-a]pyrazin-4(5H)-one], the half-maximal inhibitory concentration (IC50) in series [1] was 50 to 100 nM. The half-life at 0.5 μM in series [3] was over 1.67 h. `C[C@@H](COCc1nn2c(c1Cl)CN(c1cnc(C(F)(F)F)cn1)CC2)Nc1cn[nH]c(=O)c1C(F)(F)F` [Compound 14, (S)-5-((1-((3-chloro-5-(5-(trifluoromethyl)pyrazin-2-yl)-4,5,6,7-tetrahydropyrazolo[1,5-a]pyrazin-2-yl)methoxy)propan-2-yl)amino)-4-(trifluoromethyl)pyridazin-3(2H)-one] came in with an IC50 in series [1] of 50 to 100 nM. Regarding `C[C@@H](COCc1nn2c(c1C(F)(F)F)CN(c1ncc(C(F)(F)F)cn1)CC2)Nc1cn[nH]c(=O)c1C(F)(F)F` [Compound 19, (S)-4-(trifluoromethyl)-5-((1-((3-(trifluoromethyl)-5-(5-(trifluoromethyl)pyrimidin-2-yl)-4,5,6,7-tetrahydropyrazolo[1,5-a]pyrazin-2-yl)methoxy)propan-2-yl)amino)pyridazin-3(2H)-one], the half-maximal inhibitory concentration (IC50) in series [1] was under 50 nM. Turning to `[2H]C([2H])(OC[C@H](C)Nc1cn[nH]c(=O)c1C(F)(F)F)c1cc2n(n1)CCN(c1cnc(C(F)(F)F)cn1)C2([2H])[2H]` [Compound 21, (S)-4-(trifluoromethyl)-5-((1-((5-(5-(trifluoromethyl)pyrazin-2-yl)-4,5,6,7-tetrahydropyrazolo[1,5-a]pyrazin-2-yl-4,4-d2)methoxy-d2)propan-2-yl)amino)pyridazin-3(2H)-one], the figures for the concentration for half-maximal inhibition (IC50) in series [1] and in series [2] were under 50 nM and under 10 nM, respectively. In series [1], `[2H]C([2H])(OC[C@H](C)Nc1cn[nH]c(=O)c1C(F)(F)F)c1cc2n(n1)CCN(c1ccc(C#N)cn1)C2([2H])[2H]` [Compound 23, (S)-6-(2-((2-((6-oxo-5-(trifluoromethyl)-1,6-dihydropyridazin-4-yl)amino)propoxy)methyl-d2)-6,7-dihydropyrazolo[1,5-a]pyrazin-5(4H)-yl-4,4-d2)nicotinonitrile] showed a 50% inhibitory concentration (IC50) of 50 to 100 nM. Same read-out and setting: next, `[2H]c1c(COC[C@H](C)Nc2cn[nH]c(=O)c2C(F)(F)F)nn2c1CN(c1ncc(C(F)(F)F)cn1)CC2` [Compound 25, (S)-4-(trifluoromethyl)-5-((1-((5-(5-(trifluoromethyl)pyrimidin-2-yl)-4,5,6,7-tetrahydropyrazolo[1,5-a]pyrazin-2-yl-d)methoxy)propan-2-yl)amino)pyridazin-3(2H)-one]: under 50 nM. As to `C[C@@H](COCc1nc2n(n1)CCN(c1ccc(C(F)(F)F)cn1)C2)Nc1cn[nH]c(=O)c1C(F)(F)F` [Compound 26, (S)-4-(trifluoromethyl)-5-((1-((7-(5-(trifluoromethyl)pyridin-2-yl)-5,6,7,8-tetrahydro[1,2,4]triazolo[1,5-a]pyrazin-2-yl)methoxy)propan-2-yl)amino)pyridazin-3(2H)one], the concentration for half-maximal inhibition (IC50) in series [1] was under 50 nM. In addition, in series [3], the half-life at 0.5 μM was over 1.67 h. With `O=c1[nH]ncc(N2CCC[C@H]2COCc2nc3n(n2)CCN(c2ncc(C(F)(F)F)cn2)C3)c1C(F)(F)F` [Compound 28, (S)-4-(trifluoromethyl)-5-(2-(((7-(5-(trifluoromethyl)pyrimidin-2-yl)-5,6,7,8-tetrahydro-[1,2,4]triazolo[1,5-a]pyrazin-2-yl)methoxy)methyl)pyrrolidin-1-yl)pyridazin-3(2H)-one], the IC50 in series [1] is 50 to 100 nM. `C[C@@H](COCc1cc2n(n1)CCN(c1ncc(C(F)(F)F)s1)C2)Nc1cn[nH]c(=O)c1C(F)(F)F` [Compound 30] gave a half-maximal inhibitory concentration (IC50) in series [1] of 50 to 100 nM. Turning to `CC[C@@H](COCc1nc2n(n1)CCN(c1ncc(C(F)(F)F)cn1)C2)Nc1cn[nH]c(=O)c1C(F)(F)F` [Compound 37, (S)-4-(trifluoromethyl)-5-((1-((7-(5-(trifluoromethyl)pyrimidin-2-yl)-5,6,7,8-tetrahydro-[1,2,4]triazolo[1,5-a]pyrazin-2-yl)methoxy)butan-2-yl)amino)pyridazin-3(2H)-one], in series [3], the half-life at 0.5 μM is over 1.67 h.
